Measurements taken from patent US9890147B2 (BAYER PHARMA AKTIENGESELLSCHAFT, priority 2012, dated 2018).
pIC50: −log10 of the molar value.

Columns and labels:
B16F10 cells = assay: Cell proliferation assay (alamarBlue), B16F10; format: cell-based; details: Mus musculus, B16-F10, 96 hours incubation, inhibition of cell proliferation
Experimental: (§1) In accordance with the invention, the capability of the substances to inhibit cell proliferation was determined Cell viability was determined using the alamarBlue® reagent (Invitrogen) in a Victor X3 Multilabel Reader (Perkin Elmer). The excitation wavelength was 530 nm and the emission wavelenth […].
The B16F10 cells (ATCC, CRL-6475) were sown at a concentration of 300-500 cells/well in 100 μl growth medium (DMEM with phenol red, 10% FCS) on 96-well microtitre plates.
(§2) After an overnight incubation at 37° C., the fluorescence values (CI values) were determined. The plates were then treated with various substance dilutions (1E-5 M, 3E-6 M, 1E-6M, 3E-7 M, 1E-7 M, 3E-8 M, 1E-8 M) and incubated at 37° C. for 72 (MV4-11-, LOX-IMVI cells), 96 (MOLM-13-, B16F10-, MDA-MB-431-, Caov-3 cells), 120 (MOLP-8-, KMS-12-PE cells) or 168 (LAPC-4 cells) hours. The fluorescence values (CO values) were then determined. For the data analysis, the CI values were subtracted from the CO values and the results were compared between cells treated with different dilutions of the substance or with buffer solution only. These were used to calculate the IC 50 values (substance concentration required for 50% inhibition of cell proliferation).

BRD4 (BD1) = target: T1, BRD4 (BD1) (Homo sapiens, UniProt O60885); assay: Binding assay BRD4/acetylated peptide H4 (TR-FRET protein-protein interaction assay)
T1 construct: with relatively long constructs also being possible, preferably amino acids 44-168; made in house; host or cells: E. coli
How it was run: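 His6-BRD4 BD1 (aa 67-152, E. coli), usually 10 nM, with biotinylated tetra-acetylated H4 peptide in HEPES pH 7.5 buffer; 11 compound concentrations 0.1 nM–20 μM in duplicate, 10 min preincubation, 1 h at 22 °C then ≥3 h at 4 °C. TR-FRET 665/620 ratio; IC50 by 4-parameter fit.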

LAPC-4 cells = assay: Cell proliferation assay (alamarBlue), LAPC-4; format: cell-based; details: Homo sapiens, LAPC4; inhibition of cell proliferation, LAPC-4 (prostate cancer), 1 nM methyltrienolone, 168 hours
Experimental: as §1
The LAPC-4 cells (ATCC, PTA-1441TM) were sown at a concentration of 4000 cells/well in 100 μl growth medium (RPMI1640, 2 mM L-glutamine, 10% cFCS) on 96-well microtitre plates. A day later, the LAPC-4 cells were treated with 1 nM methyltrienolone and various substance dilutions.
as §2

MOLM-13 cells = assay: Cell proliferation assay (alamarBlue), MOLM-13; format: cell-based; details: Homo sapiens, 96 hours incubation, inhibition of cell proliferation
How it was run: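 Cells in RPMI1640/10% FCS read by alamarBlue fluorescence (ex 530, em 590 nm) after overnight 37 °C incubation, then treated at 1E-5 to 1E-8 M for 96 h. Pre-treatment values subtracted from endpoint values and compared with buffer-only wells; IC50 is 50% proliferation inhibition.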

MDA-MB-231 cells = assay: Cell proliferation assay (alamarBlue), MDA-MB-231; format: cell-based; details: Homo sapiens; inhibition of cell proliferation, MDA-MB-231 (breast carcinoma), 96 hours
Experimental: as §1
The MDA-MB-231 cells (DSMZ, ACC 732) were sown at a concentration of 4000 cells/well in 100 μl growth medium (DMEM/Ham's F12 medium, 10% FCS) on 96-well microtitre plates. The Caov-3 cells (ATCC, HTB-75) were sown at a concentration of 2000 cells/well in 100 μl growth medium (MEM Earle's medium, 10% FCS) on 96-well microtitre plates.
as §2

LOX-IMVI cells = assay: Cell proliferation assay (alamarBlue), LOX-IMVI; format: cell-based; details: Homo sapiens, 72 hours incubation, inhibition of cell proliferation
How it was run: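 Cells seeded at 1000/well in RPMI1640 with 10% FCS, incubated overnight at 37° C, then treated with dilutions from 1E-5 to 1E-8 M for 72 h. Viability read by alamarBlue fluorescence (ex 530/em 590 nm); pre-treatment values subtracted and compared with buffer-only cells to derive IC50.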

KMS-12-PE cells = assay: Cell proliferation assay (alamarBlue), KMS-12-PE; format: cell-based; details: Homo sapiens, 120 hours incubation, inhibition of cell proliferation
How it was run: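 KMS-12-PE myeloma cells in RPMI1640 with 20% FCS were exposed to compound (1E-5 to 1E-8 M) for 120 h at 37° C. AlamarBlue fluorescence (ex 530, em 590 nm) read before and after treatment; the difference versus buffer-treated cells gave IC50.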

MV4-11 cells = assay: Cell proliferation assay (alamarBlue), MV4-11; format: cell-based; details: Homo sapiens, 72 hours incubation, inhibition of cell proliferation
How it was run: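 Cells seeded at 5000/well in RPMI1640 + 10% FCS, incubated overnight at 37° C, then treated with compound (1E-5 to 1E-8 M) for 72 h at 37° C. Viability by alamarBlue fluorescence (ex 530/em 590 nm); pre-treatment readings subtracted, IC50 derived versus buffer-treated cells.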

MOLP-8 cells = assay: Cell proliferation assay (alamarBlue), MOLP-8; format: cell-based; details: Homo sapiens, 120 hours incubation, inhibition of cell proliferation
How it was run: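 MOLP-8 cells in RPMI1640 with 20% FCS, 4000 cells/well, treated overnight after seeding with substance at 1E-5 to 1E-8 M for 120 h at 37° C. Viability read by alamarBlue fluorescence (ex 530, em 590); pre-treatment values subtracted, compared with buffer-only cells to derive IC50.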

Caov-3 cells = assay: Cell proliferation assay (alamarBlue), Caov-3; format: cell-based; details: Homo sapiens; inhibition of cell proliferation, Caov-3 (ovarian carcinoma), 96 hours
How it was run: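 Caov-3 (MEM Earle's, 10% FCS, 2000 cells/well) and MDA-MB-231 (DMEM/Ham's F12, 10% FCS, 4000 cells/well) were treated after overnight attachment with 1E-5 to 1E-8 M compound. Caov-3 exposure was 96 h. alamarBlue fluorescence (ex 530, em 590 nm) was read after background subtraction of day-0 values, and IC50 calculated versus buffer-treated cells.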

Row | SMILES | pIC50 (B16F10 cells) | pIC50 (BRD4 (BD1)) | pIC50 (LAPC-4 cells) | pIC50 (MOLM-13 cells) | pIC50 (MDA-MB-231 cells) | pIC50 (LOX-IMVI cells) | pIC50 (KMS-12-PE cells) | pIC50 (MV4-11 cells) | pIC50 (MOLP-8 cells) | pIC50 (Caov-3 cells)
1 | CNC(=O)N1N=C(c2ccc(-c3c(C)noc3C)cc2)c2cc(OC)c(OC)cc2C[C@H]1C [Example 2.1, (4R)-1-[4-(3,5-Dimethyl-4-isoxazolyl)phenyl]-7,8-dimethoxy-N,4-dimethyl-4,5-dihydro-3H-2,3-benzodiazepine-3-carboxamide] | 5.98 | 6.60 | 6.15 | 5.82 | 5.86 |  |  |  |  | 
2 | CNC(=O)N1N=C(c2ccc(Cl)cc2)c2cc(OC(F)(F)F)ccc2CC1C (racemic) [Example 1, (±)-1-(4-Chlorophenyl)-N,4-dimethyl-8-(trifluoromethoxy)-4,5-dihydro-3H-2,3-benzodiazepine-3-carboxamide] | 6.16 | 6.72 | 6.22 | 5.90 | 6.05 |  |  |  |  | 
3 | CNC(=O)N1N=C(c2ccc(Cl)cc2)c2cc(N3CCOCC3)ccc2CC1C (racemic) [Example 11, (±)-1-(4-Chlorophenyl)-N,4-dimethyl-8-(morpholin-4-yl)-4,5-dihydro-3H-2,3-benzodiazepine-3-carboxamide] | 5.95 | 6.51 | 6.35 | 5.72 | 5.59 |  |  |  |  | 
4 | CNC(=O)N1N=C(c2ccc(N3CCOCC3=O)cc2)c2cc(OC)c(OC)cc2C[C@@H]1C [Example 40.1, (4S)-7,8-dimethoxy-N,4-dimethyl-1-[4-(3-oxomorpholin-4-yl)phenyl]-4,5-dihydro-3H-2,3-benzodiazepine-3-carboxamide] | 6.10 | 6.92 | 6.54 | 6.02 | 5.89 | 6.48 | 7.10 | 6.12 | 6.23 | 
5 | CNC(=O)N1N=C(c2cccnc2)c2cc(OC)ccc2CC1C (racemic) [Example 14, (±)-8-Methoxy-N,4-dimethyl-1-(pyridin-3-yl)-4,5-dihydro-3H-2,3-benzodiazepine-3-carboxamide] | 5.58 | 6.23 | 5.78 | 5.51 | 5.44 |  |  |  |  | 
6 | CNC(=O)N1N=C(c2ccc(Cl)cc2)c2cc(N3CCN(C)CC3)ccc2CC1C (racemic) [Example 12, (±)-1-(4-Chlorophenyl)-N,4-dimethyl-8-(4-methylpiperazin-1-yl)-4,5-dihydro-3H-2,3-benzodiazepine-3-carboxamide] | 5.88 | 6.27 | 6.06 | 5.79 | 5.73 |  |  |  |  | 
7 | CNC(=O)N1N=C(c2ccc(Cl)cc2)c2cc(-c3ccncc3)ccc2CC1C (racemic) [Example 8, (±)-1-(4-Chlorophenyl)-N,4-dimethyl-8-(pyridin-4-yl)-4,5-dihydro-3H-2,3-benzodiazepine-3-carboxamide] | 6.72 | 7.05 | 6.74 | 6.42 | 6.55 |  |  |  |  | 
8 | CNC(=O)N1N=C(c2ccc(Cl)cc2)c2cc(C3CC3)ccc2CC1C (racemic) [Example 9, (±)-1-(4-chlorophenyl)-8-cyclopropyl-N,4-dimethyl-4,5-dihydro-3H-2,3-benzodiazepine-3-carboxamide] | 6.27 | 6.92 | 6.37 | 6.19 | 6.14 |  |  |  |  | 
9 | CNC(=O)N1N=C(c2ccc(N3CCOCC3)cc2)c2cc(OC)ccc2C[C@@H]1C [Example 17, (4S)-8-Methoxy-N,4-dimethyl-1-[4-(morpholin-4-yl)phenyl]-4,5-dihydro-3H-2,3-benzodiazepine-3-carboxamide] |  | 7.40 | 7.00 | 6.77 | 6.68 | 6.52 | 6.96 | 6.89 | 6.96 | 6.66
10 | CNC(=O)N1N=C(c2ccc(Cl)cc2)c2cc(-c3ccc(S(=O)(=O)NC)cc3)ccc2CC1C (racemic) [Example 10, (±)-1-(4-chlorophenyl)-N,4-dimethyl-8-{4-[(methylamino)sulphonyl]phenyl}-4,5-dihydro-3H-2,3-benzodiazepine-3-carboxamide] | 6.57 | 6.80 | 6.92 | 6.51 | 6.59 |  |  |  |  | 
11 | CNC(=O)N1N=C(c2ccc(Cl)cc2)c2cc(OC(F)(F)F)ccc2C[C@H]1C [Example 1.2, (4R)-1-(4-Chlorophenyl)-N,4-dimethyl-8-(trifluoromethoxy)-4,5-dihydro-3H-2,3-benzodiazepine-3-carboxamide] | < 5.00 | 5.60 | 5.29 | < 5.00 | < 5.00 |  |  |  |  | 
12 | CNC(=O)N1N=C(c2ccc(-c3ccc(C(=O)O)s3)cc2)c2cc(OC)c(OC)cc2CC1C (racemic) [Example 5, (±)-5-(4-{7,8-dimethoxy-4-methyl-3-[(methylamino)carbonyl]-4,5-dihydro-3H-2,3-benzodiazepin-1-yl}phenyl)thiophene-2-carboxylic acid] | 6.16 | 7.52 | 6.57 | 6.09 | 5.87 |  |  |  |  | 
13 | CNC(=O)N1N=C(c2ccc(Cl)cc2)c2cc(N3CCCCC3)ccc2CC1C (racemic) [Example 13] | 6.04 | 6.68 | 6.05 | 5.84 | 5.89 |  |  |  |  | 
14 | CNC(=O)N1N=C(c2ccc(Cl)cc2)c2cc(OC(F)(F)F)ccc2C[C@@H]1C [Example 1.1, (4S)-1-(4-Chlorophenyl)-N,4-dimethyl-8-(trifluoromethoxy)-4,5-dihydro-3H-2,3-benzodiazepine-3-carboxamide] | 6.41 | 7.22 | 6.22 | 6.41 | 6.28 |  |  |  | 6.29 | 
15 | CNC(=O)N1N=C(c2ccc(-n3nc(C)cc3C)cc2)c2cc(OC)ccc2C[C@@H]1C [Example 16, (4S)-1-[4-(3,5-Dimethyl-1H-pyrazol-1-yl)phenyl]-8-methoxy-N,4-dimethyl-4,5-dihydro-3H-2,3-benzodiazepine-3-carboxamide] |  | 7.30 | 6.96 | 6.66 | 6.33 | 6.19 | 6.60 | 6.57 | 6.54 | 6.43
